Experimental data published in patent US8227428B2, “Anti-infammatory macrolide” (Glaxo Group Limited, priority 2009, dated 2012).

What was measured:
[1] = Stability in bio-relevant media (SGF, Fasted SIF, Fed SIF) at 37° C.; format: physicochemical
Description: Stability in buffer solutions pH 2 to pH 8 at 25° C., and in bio-relevant media (SGF pH 1.6, Fasted SIF pH 6.5 and Fed SIF pH 5.0) at 37° C., during 24 hours is monitored. The samples are analysed by LC/MS.
SGF (Simulated Gastric Fluid) pH 1.6
Fasted SIF (Simulated Intestinal Fluid) pH 6.5
Fed SIF (Simulated Intestinal Fluid) pH 5.0
Flow: 0.3 mL/min Column temp.: 25° C. Sample temp.: 25° C. (for stability assay in buffer solutions) • 37° C. (for stability assay in bio-relevant media) Injector volume: 3 μL (without injection program) MS Conditions: Instrument HP MS API-ES, positive ion mode Mass Range: 150-1500 Fragmentor: 100 Gain: 1.0 Treshold: 150 Step size: 0.20 Gas Temperature: 350° C. Drying Gas Flow: 13 L/min Nebulizer Pressure: 35 psig Capillary Voltage Positive 4000 V • Negative 4000 V Sample Preparation: a) For Stability Assay in Buffer Solutions
b) For Stability Assay in Bio-Relevat Media
b1) For SGF Media pH 1.6 Testing:
Compounds are dissolved in SGF media pH 1.6 to give 0.2 mg/mL solution in case of compounds 1 and 2, and to give 0.1 mg/mL solution in case of compound 3. Solutions are then stored in a water bath at 37° C. and removed at the proper time point for LC/MS analysis. Before analysis, pH values of prepared sample solutions are checked and adjusted if necessary.
b2) For Fasted SIF Media pH 6.5 Testing:
Compounds are dissolved in Fasted SIF media pH 6.5 to give 2 mg/mL solution. Solutions are then dispatched into vials that are stored in a water bath at 37° C. and removed at the proper time point and diluted 10 times with CH3CN for LC/MS analysis. Before analysis, pH values of prepared sample solutions are checked and adjusted if necessary.
b3) For Fed SIF Media pH 5.0 Testing:
Compounds are dissolved in Fed SIF media pH 5.0 to give 2 mg/mL solution. Solutions are then dispatched into vials that are stored in a water bath at 37° C. and removed at the proper time point and diluted 40 times with CH3CN for LC/MS analysis. Before analysis, pH values of prepared sample solutions are checked and adjusted if necessary.

[2] = system: Lung neutrophilia induced by bacterial lipopolysaccharide (LPS); test: Lung neutrophilia induced by bacterial lipopolysaccharide (LPS) in male BALB/cJ mice; format: in vivo; details: average; single dose 200 mg/kg i.p.; vs LPS challenged untreated animals
Description: For intraperitoneal administration (i.p.) compounds are dissolved in a final concentration of 10 mg/mL. The required amount of compound is first dissolved in dimethylsulfoxide (DMSO, Sigma) and then diluted with 0.5% (w/v) methyl-cellulose so that the final DMSO concentration is 5% (v/v). The obtained solution is applied in a dose volume of 0.2 mL per 10 g of animal. Therefore, the compound dose is 200 mg/kg.
Male BALB/cJ mice (Charles River, France), with an average weight of ˜30 g are randomly grouped (n=8 in testing group, 10 in positive control and 8 in negative control). Mice receive intraperitoneally (i.p.) a single dose of 200 mg/kg of test compound. Two hours after administration, 2 μg of LPS (from Escherichia coli serotype 0111:B4, Sigma), dissolved in sterile PBS in a volume of 60 μL, is intranasally administered to all experimental groups except the negative control group, which receive the same volume of vehicle (PBS). Animals are sacrificed approximately 24 hours after application of LPS in order to obtain bronchioalveolar lavage fluid (BALF), which is used to determine absolute number of cells and the percentage of neutrophils. Results are expressed as percentage decrease in total cell number and number of neutrophils in BALF of treated animals compared to positive control (LPS challenged, but untreated animals).

[3] = system: Streptococcus pyogenes ATCC700294; test: Anti-bacterial screening, broth microdilution MIC; format: cell-based; details: read-out: minimal inhibitory concentration (MIC)
Description: (§1) Whole-cell antimicrobial activity of compounds against clinically relevant bacteria (Staphylococcus aureus ATCC13709, Streptococcus pneumoniae ATCC49619, Streptococcus pyogenes ATCC700294, Moraxella catarrhalis ATCC23246, Haemophilus influenzae ATCC49247 and Escherichia coli ATCC25922) is determined by broth microdilution using the Clinical and Laboratory Standards (CLSI) recommended procedure (Document M7-[…], Methods for Dilution Susceptibility Tests for Bacteria that Grow Aerobically). Compounds are dissolved in DMSO to produce a 50 mM stock solution. The stock solution is diluted to a concentration of 128 μg/mL in appropriate media (Haemophilus Test Medium for Haemophilus influenzae, Mueller-Hinton Broth for Staphylococcus aureus, Moraxella catarrhalis and Escherichia coli, and Mueller-Hinton Broth supplemented with 5% horse serum for Streptococcus pyogenes and Streptococcus pneumoniae) to produce a working solution. A Tecan Genesis 150 Workstation (Tecan Group Ltd. Mannedorf, Switzerland) is used to prepare serial two-fold dilutions (50 μL aliquots) of the working solution in a U-shape bottom 96 well microtitre plate. After the compounds are diluted, a 50 μL aliquot of the test isolate ( 1×10^6 cfu/ml) is added to each well of the microtitre plate. The final test concentrations range from 0.125-64 μg/mL. Inoculated plates are incubated at 35° C. in ambient air for 18 to 24 hours. The minimum inhibitory concentration (MIC) is determined as the lowest concentration of compound that inhibited visible growth.

[4] = system: Staphylococcus aureus ATCC13709; test: Anti-bacterial screening, broth microdilution MIC; format: cell-based; details: read-out: minimal inhibitory concentration (MIC)
Description: as §1

[5] = system: Streptococcus pneumoniae ATCC49619; test: Anti-bacterial screening, broth microdilution MIC; format: cell-based; details: read-out: minimal inhibitory concentration (MIC)
Description: as §1

[6] = system: Haemophilus influenzae ATCC49247; test: Anti-bacterial screening, broth microdilution MIC; format: cell-based; details: read-out: minimal inhibitory concentration (MIC)
Description: as §1

[7] = system: Escherichia coli ATCC25922; test: Anti-bacterial screening, broth microdilution MIC; format: cell-based; details: read-out: minimal inhibitory concentration (MIC)
Description: as §1

[8] = system: Moraxella catarrhalis ATCC23246; test: Anti-bacterial screening, broth microdilution MIC; format: cell-based; details: read-out: minimal inhibitory concentration (MIC)
Description: as §1

SMILES: CC[C@H]1OC(=O)[C@H](C)[C@@H](O[C@H]2C[C@@](C)(OC)[C@@H](OC(=O)CCN(CC)CC)[C@H](C)O2)[C@H](C)[C@@H](O[C@@H]2O[C@H](C)C[C@H](NC)[C@H]2O)[C@](C)(OC)C[C@@H](C)C(=O)N[C@H](C)[C@@H](O)[C@]1(C)O [Example 2, 3′-N-Demethyl-4″-O-(3-diethylaminopropionoyl)-6-O-methyl-9a-aza-9a-homoerythromycin A]
- stability in bio-relevant media SGF pH 1.6 and Fasted SIF pH 6.5 ([1]; 37° C., during 24 hours): Example 2 showed instability in bio-relevant media SGF pH 1.6 and in Fasted SIF pH 6.5.
- Percentage (Area %) of the compound observed in Bio-relevant media ([1]; Fasted SIF pH 6.5, 37° C., 1 h): 99.6 Area %
- Percentage (Area %) of the compound observed in Bio-relevant media ([1]; Fasted SIF pH 6.5, 37° C., 2 h): 98.0 Area %
- Percentage (Area %) of the compound observed in Bio-relevant media ([1]; Fasted SIF pH 6.5, 37° C., 3 h): 93.0 Area %
- Percentage (Area %) of the compound observed in Bio-relevant media ([1]; Fasted SIF pH 6.5, 37° C., 4 h): 89.7 Area %
- Percentage (Area %) of the compound observed in Bio-relevant media ([1]; Fasted SIF pH 6.5, 37° C., 5 h): 86.7 Area %
- Percentage (Area %) of the compound observed in Bio-relevant media ([1]; Fasted SIF pH 6.5, 37° C., Initial): 100 Area %
- Percentage (Area %) of the compound observed in Bio-relevant media ([1]; Fed SIF pH 5.0, 37° C., 1 h): 99.7 Area %
- Percentage (Area %) of the compound observed in Bio-relevant media ([1]; Fed SIF pH 5.0, 37° C., 2 h): 99.6 Area %
- Percentage (Area %) of the compound observed in Bio-relevant media ([1]; Fed SIF pH 5.0, 37° C., 3 h): 99.4 Area %
- Percentage (Area %) of the compound observed in Bio-relevant media ([1]; Fed SIF pH 5.0, 37° C., 4 h): 98.7 Area %
- Percentage (Area %) of the compound observed in Bio-relevant media ([1]; Fed SIF pH 5.0, 37° C., 5 h): 98.6 Area %
- Percentage (Area %) of the compound observed in Bio-relevant media ([1]; Fed SIF pH 5.0, 37° C., 24 h): 97.4 Area %
- Percentage (Area %) of the compound observed in Bio-relevant media ([1]; Fed SIF pH 5.0, 37° C., Initial): 100 Area %
- Percentage (Area %) of the compound observed in Bio-relevant media ([1]; SGF pH 1.6, 37° C., 15): 83.9 Area %
- Percentage (Area %) of the compound observed in Bio-relevant media ([1]; SGF pH 1.6, 37° C., 1 h): 99.3 Area %
- Percentage (Area %) of the compound observed in Bio-relevant media ([1]; SGF pH 1.6, 37° C., 2 h): 99.3 Area %
- Percentage (Area %) of the compound observed in Bio-relevant media ([1]; SGF pH 1.6, 37° C., 3 h): 96.6 Area %
- Percentage (Area %) of the compound observed in Bio-relevant media ([1]; SGF pH 1.6, 37° C., 4 h): 92.9 Area %
- Percentage (Area %) of the compound observed in Bio-relevant media ([1]; SGF pH 1.6, 37° C., 5 h): 92.3 Area %
- Percentage (Area %) of the compound observed in Bio-relevant media ([1]; SGF pH 1.6, 37° C., 6 h): 91.1 Area %
- Percentage (Area %) of the compound observed in Bio-relevant media ([1]; SGF pH 1.6, 37° C., 8 h): 90.1 Area %
- Percentage (Area %) of the compound observed in Bio-relevant media ([1]; SGF pH 1.6, 37° C., 10 h): 87.2 Area %
- Percentage (Area %) of the compound observed in Bio-relevant media ([1]; SGF pH 1.6, 37° C., 12 h): 85.4 Area %
- Percentage (Area %) of the compound observed in Bio-relevant media ([1]; SGF pH 1.6, 37° C., 18 h): 82.4 Area %
- Percentage (Area %) of the compound observed in Bio-relevant media ([1]; SGF pH 1.6, 37° C., 21 h): 81.0 Area %
- Percentage (Area %) of the compound observed in Bio-relevant media ([1]; SGF pH 1.6, 37° C., Initial): 100 Area %
- inhibition of the number of neutrophils in BALF [2]: more than 70%
- MIC [3]: > 64 µg/mL
- MIC [4]: > 64 µg/mL
- MIC [5]: > 64 µg/mL
- MIC [6]: > 64 µg/mL
- MIC [7]: > 64 µg/mL
- MIC [8]: > 64 µg/mL
